Measured values taken from ChEMBL document CHEMBL1201862, “PubChem BioAssay data set” (2004).
Calls of active or inactive are those of the source.

Assays:
[1] = biological target: Insulin receptor (Homo sapiens, UniProt P06213); format: functional;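 further: insulin receptor kinase tested as one member of a kinome-wide kinase panel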
[2] = biological target: Protein kinase C gamma type (Homo sapiens, UniProt P05129); format: functional
[3] = biological target: Tyrosine-protein kinase FRK (Homo sapiens, UniProt P42685); format: functional;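 further: FRK tested as one member of a kinome panel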
[4] = biological target: Serine/threonine-protein kinase BRSK1 (Homo sapiens, UniProt Q8TDC3); format: functional;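 further: measured within a kinome-wide kinase panel, with the target listed as KIAA1811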
[5] = biological target: Tyrosine-protein kinase Lck (Homo sapiens, UniProt P06239); format: functional;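 further: lck was assayed as one member of a kinase panel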
[6] = biological target: Ribosomal protein S6 kinase alpha-5 (Homo sapiens, UniProt O75582); format: functional
[7] = biological target: STE20-like serine/threonine-protein kinase (Homo sapiens, UniProt Q9H2G2); format: functional
[8] = biological target: cAMP-dependent protein kinase catalytic subunit PRKX (Homo sapiens, UniProt P51817); format: functional
Sequence of cAMP-dependent protein kinase catalytic subunit PRKX (P51817 whole entry): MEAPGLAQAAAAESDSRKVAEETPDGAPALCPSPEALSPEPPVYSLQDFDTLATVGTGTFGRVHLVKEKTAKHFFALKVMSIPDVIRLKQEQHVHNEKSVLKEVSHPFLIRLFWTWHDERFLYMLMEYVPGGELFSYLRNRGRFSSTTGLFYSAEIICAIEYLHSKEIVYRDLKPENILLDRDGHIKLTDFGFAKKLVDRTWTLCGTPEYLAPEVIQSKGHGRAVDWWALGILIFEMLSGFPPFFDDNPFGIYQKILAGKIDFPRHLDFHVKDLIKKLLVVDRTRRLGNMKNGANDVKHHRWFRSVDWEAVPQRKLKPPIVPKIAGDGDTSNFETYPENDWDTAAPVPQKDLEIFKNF

[9] = biological target: Mitogen-activated protein kinase 8 (Homo sapiens, UniProt P45983); format: functional;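 further: value comes from one member of a kinome-wide kinase profiling panel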
[10] = biological target: Calcium/calmodulin-dependent protein kinase type II subunit gamma (Homo sapiens, UniProt Q13555); format: functional
Sequence of Calcium/calmodulin-dependent protein kinase type II subunit gamma (Q13555 whole entry): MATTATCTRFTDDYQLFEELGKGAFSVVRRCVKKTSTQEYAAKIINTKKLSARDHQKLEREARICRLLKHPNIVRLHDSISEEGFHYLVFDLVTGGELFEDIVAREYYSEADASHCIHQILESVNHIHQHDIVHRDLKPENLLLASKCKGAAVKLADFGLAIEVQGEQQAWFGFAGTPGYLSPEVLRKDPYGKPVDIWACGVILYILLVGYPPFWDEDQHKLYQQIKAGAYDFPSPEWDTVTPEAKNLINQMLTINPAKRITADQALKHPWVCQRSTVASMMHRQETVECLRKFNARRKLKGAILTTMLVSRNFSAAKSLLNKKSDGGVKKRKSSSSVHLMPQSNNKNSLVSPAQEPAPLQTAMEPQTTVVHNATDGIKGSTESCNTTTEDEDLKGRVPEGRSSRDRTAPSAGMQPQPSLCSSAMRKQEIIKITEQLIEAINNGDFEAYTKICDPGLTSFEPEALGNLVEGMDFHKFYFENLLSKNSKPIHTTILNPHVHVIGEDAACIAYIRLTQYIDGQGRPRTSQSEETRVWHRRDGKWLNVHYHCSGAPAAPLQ

[11] = biological target: Proto-oncogene tyrosine-protein kinase Src (Homo sapiens, UniProt P12931); format: functional;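 further: SRC entry within a kinome-wide kinase profiling panel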
Sequence of Proto-oncogene tyrosine-protein kinase Src (P12931 2-536 limits assumed): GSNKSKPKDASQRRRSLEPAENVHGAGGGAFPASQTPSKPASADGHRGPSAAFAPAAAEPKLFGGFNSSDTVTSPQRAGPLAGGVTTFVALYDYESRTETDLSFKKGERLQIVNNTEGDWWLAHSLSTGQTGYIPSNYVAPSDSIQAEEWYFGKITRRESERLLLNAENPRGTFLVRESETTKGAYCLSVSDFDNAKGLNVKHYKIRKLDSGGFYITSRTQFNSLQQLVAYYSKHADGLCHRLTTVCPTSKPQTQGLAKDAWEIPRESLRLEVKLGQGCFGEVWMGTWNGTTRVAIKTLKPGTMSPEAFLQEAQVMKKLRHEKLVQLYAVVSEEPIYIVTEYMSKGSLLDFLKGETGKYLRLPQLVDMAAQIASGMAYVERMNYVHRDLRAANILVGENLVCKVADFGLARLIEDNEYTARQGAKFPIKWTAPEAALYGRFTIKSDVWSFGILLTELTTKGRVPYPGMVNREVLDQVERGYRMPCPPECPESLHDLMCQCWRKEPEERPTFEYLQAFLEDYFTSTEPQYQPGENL

[12] = biological target: Insulin-like growth factor 1 receptor (Homo sapiens, UniProt P08069); assay: Navigating the Kinome. Panel member name: IGF1R; format: functional
[13] = biological target: Dual specificity protein kinase CLK2 (Homo sapiens, UniProt P49760); format: functional
[14] = biological target: BDNF/NT-3 growth factors receptor (Homo sapiens, UniProt Q16620); format: functional;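 further: NTRK2 measured as one member of a broad kinome-wide kinase profiling panel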
Sequence of BDNF/NT-3 growth factors receptor (Q16620 whole entry): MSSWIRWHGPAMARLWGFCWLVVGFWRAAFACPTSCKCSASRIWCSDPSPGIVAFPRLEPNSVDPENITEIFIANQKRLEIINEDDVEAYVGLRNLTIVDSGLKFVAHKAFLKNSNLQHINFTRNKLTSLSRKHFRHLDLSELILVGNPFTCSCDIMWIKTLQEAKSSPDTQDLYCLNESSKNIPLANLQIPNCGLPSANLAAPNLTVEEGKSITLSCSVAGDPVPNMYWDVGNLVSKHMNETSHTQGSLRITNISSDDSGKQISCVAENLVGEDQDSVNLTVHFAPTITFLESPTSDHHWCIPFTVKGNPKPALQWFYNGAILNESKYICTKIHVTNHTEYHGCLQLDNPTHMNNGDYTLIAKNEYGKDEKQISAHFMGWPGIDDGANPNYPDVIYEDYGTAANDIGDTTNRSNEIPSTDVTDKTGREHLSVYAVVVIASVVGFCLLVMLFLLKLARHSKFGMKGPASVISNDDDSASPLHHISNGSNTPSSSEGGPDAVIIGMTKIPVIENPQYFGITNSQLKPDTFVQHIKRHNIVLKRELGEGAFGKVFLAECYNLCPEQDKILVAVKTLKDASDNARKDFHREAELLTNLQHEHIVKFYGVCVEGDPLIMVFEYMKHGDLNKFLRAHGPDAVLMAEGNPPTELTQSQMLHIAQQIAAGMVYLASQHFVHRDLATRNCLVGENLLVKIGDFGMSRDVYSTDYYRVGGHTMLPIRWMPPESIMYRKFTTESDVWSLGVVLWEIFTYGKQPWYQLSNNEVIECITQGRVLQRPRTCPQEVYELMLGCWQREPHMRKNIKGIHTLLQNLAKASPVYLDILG

[15] = biological target: Serine/threonine-protein kinase Nek2 (Homo sapiens, UniProt P51955); format: functional
[16] = biological target: Dual specificity tyrosine-phosphorylation-regulated kinase 1B (Homo sapiens, UniProt Q9Y463); assay: Navigating the Kinome. Panel member name: DYRK1B; format: functional
Sequence of Dual specificity tyrosine-phosphorylation-regulated kinase 1B (Q9Y463 whole entry): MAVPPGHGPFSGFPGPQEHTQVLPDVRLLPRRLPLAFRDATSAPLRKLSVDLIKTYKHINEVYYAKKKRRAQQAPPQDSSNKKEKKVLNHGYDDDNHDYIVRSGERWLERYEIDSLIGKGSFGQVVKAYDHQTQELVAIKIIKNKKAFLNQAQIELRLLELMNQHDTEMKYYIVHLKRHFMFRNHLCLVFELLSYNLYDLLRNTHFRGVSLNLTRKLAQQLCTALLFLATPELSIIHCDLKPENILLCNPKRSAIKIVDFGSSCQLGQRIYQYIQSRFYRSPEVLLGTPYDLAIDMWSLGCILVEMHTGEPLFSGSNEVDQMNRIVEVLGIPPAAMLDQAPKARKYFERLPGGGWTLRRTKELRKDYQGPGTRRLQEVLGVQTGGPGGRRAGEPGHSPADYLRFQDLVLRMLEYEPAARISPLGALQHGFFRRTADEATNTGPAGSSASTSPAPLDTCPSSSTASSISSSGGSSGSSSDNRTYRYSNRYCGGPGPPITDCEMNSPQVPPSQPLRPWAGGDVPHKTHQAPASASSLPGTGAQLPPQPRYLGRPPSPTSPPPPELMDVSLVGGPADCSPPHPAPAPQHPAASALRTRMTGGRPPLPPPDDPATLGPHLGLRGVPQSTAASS

[17] = biological target: Cyclin-dependent kinase 1 (Homo sapiens, UniProt P06493); format: functional;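 further: Kinome-wide panel profiling, with the target listed as panel member CDC2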
Sequence of Cyclin-dependent kinase 1 (P06493 whole entry): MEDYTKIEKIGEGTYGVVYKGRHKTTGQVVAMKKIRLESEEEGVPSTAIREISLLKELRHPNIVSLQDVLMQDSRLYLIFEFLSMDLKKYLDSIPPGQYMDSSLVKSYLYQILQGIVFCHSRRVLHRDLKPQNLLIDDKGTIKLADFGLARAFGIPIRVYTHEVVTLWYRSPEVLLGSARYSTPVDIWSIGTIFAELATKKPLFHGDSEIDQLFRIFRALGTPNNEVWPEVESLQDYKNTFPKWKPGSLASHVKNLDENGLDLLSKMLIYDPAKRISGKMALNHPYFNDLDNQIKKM

[18] = biological target: MAP kinase-activated protein kinase 2 (Homo sapiens, UniProt P49137); format: functional;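 further: measured as one member of a kinome-wide kinase panel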
Sequence of MAP kinase-activated protein kinase 2 (P49137 whole entry): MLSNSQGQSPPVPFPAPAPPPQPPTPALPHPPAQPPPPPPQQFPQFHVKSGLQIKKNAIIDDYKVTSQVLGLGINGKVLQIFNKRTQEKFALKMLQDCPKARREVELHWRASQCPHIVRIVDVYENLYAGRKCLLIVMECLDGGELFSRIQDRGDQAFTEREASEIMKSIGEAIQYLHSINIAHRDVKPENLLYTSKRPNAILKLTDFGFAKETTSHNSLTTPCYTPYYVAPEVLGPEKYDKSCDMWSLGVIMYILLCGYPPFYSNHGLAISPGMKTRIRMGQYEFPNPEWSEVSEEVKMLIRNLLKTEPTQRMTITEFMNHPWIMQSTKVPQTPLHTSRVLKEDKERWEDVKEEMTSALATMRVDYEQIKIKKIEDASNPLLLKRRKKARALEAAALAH

[19] = biological target: Vascular endothelial growth factor receptor 2 (Homo sapiens, UniProt P35968); format: functional
[20] = biological target: Multidrug resistance protein CDR2 (Candida albicans (strain SC5314 / ATCC MYA-2876) (Yeast), UniProt P78595); assay: inhibition of Nile Red efflux via Candida CDR2 – S. cerevisiae AD1-8u, singleplex, Cherry Pick1 hits, dose response (AID 588604); format: functional
[21] = biological target: ATP-dependent molecular chaperone HSP82 (Candida albicans (strain WO-1) (Yeast), UniProt C4YTQ8); assay: steroid-induced GRE reporter decrease in yeast – S. cerevisiae, luminescence, Hsp90 inhibitor project, dose response (AID 2400); format: functional, cell-based;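 further: beta-galactosidase luminescence from glucocorticoid response element reporter as proxy for Hsp90 function; inhibitor potency where signal loss means Hsp90 inhibition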
[22] = fluconazole-exposed Candida albicans growth modulators – fluorescence, retest, confirmation (AID 2467); format: functional, cell-based
[23] = biological target: T1, Streptokinase A (Streptococcus pyogenes serotype M1, UniProt P10520); assay: viability-normalized secreted streptokinase activity reduction – plasminogen activation absorbance, OD405, dose response (AID 1914); format: functional, Streptococcus pyogenes M1 GAS;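 further: secreted streptokinase activity via plasminogen activation per viability signal from cell pellet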
T1 sequence (P10520 whole entry): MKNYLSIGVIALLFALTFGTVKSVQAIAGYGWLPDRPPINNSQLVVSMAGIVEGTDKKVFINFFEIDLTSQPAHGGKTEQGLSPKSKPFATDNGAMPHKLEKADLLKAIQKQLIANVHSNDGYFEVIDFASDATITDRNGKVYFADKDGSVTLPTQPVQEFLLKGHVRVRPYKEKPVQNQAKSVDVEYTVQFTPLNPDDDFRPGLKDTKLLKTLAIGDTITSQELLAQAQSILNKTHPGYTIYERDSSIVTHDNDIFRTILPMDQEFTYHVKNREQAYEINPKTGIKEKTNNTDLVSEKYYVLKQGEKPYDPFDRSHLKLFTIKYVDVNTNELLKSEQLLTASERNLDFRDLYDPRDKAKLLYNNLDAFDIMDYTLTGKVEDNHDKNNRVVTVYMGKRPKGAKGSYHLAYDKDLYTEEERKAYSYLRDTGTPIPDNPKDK

[24] = system: Streptococcus sp. 'group A'; assay: Streptococcus pyogenes SK(-)GAS viability under kanamycin – luminescence, BacTiterGlo, confirmation, counter-screen for streptokinase expression inhibitor project, dose response (AID 1900); format: functional, organism-based
[25] = system: HeLa; assay: Cytotoxicity counterscreen assay for transcriptional activators of heat shock protein 70 (Hsp70). [Related pubchem assays: 1203, 1252 ]; format: functional; settings: Homo sapiens;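 further: cells exposed to compound for 16 hours before readout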
[26] = biological target: T2, Replicative DNA helicase DnaB (Mycobacterium tuberculosis, UniProt P9WMR3); assay: DnaB intein splicing inhibitors, dose response, biochemical, cell-free fluorescence (AID 449749); format: functional
T2 sequence (P9WMR3 whole entry): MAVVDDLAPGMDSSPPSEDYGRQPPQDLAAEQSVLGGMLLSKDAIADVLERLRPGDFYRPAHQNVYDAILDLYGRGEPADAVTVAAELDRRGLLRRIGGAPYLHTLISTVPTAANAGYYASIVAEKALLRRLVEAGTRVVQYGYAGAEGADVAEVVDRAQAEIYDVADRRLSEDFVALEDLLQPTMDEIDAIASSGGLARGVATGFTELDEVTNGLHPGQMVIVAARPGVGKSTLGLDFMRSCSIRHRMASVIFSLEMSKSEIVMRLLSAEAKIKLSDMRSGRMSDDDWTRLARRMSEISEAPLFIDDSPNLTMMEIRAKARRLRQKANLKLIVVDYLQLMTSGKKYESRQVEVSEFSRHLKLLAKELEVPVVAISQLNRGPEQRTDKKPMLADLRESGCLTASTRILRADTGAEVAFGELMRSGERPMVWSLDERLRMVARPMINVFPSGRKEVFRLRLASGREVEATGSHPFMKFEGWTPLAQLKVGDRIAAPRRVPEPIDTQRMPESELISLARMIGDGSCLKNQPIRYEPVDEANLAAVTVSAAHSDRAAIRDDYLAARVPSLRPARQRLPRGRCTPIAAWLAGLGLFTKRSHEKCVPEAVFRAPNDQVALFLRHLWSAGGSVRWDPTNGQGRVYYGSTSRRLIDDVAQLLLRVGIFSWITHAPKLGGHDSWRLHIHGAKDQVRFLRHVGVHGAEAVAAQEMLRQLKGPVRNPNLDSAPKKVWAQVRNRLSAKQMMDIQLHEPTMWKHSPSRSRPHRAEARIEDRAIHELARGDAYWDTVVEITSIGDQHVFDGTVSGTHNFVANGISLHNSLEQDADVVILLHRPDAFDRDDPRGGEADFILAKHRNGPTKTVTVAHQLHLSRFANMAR

Sequence of Insulin receptor (P06213 28-758 limits assumed): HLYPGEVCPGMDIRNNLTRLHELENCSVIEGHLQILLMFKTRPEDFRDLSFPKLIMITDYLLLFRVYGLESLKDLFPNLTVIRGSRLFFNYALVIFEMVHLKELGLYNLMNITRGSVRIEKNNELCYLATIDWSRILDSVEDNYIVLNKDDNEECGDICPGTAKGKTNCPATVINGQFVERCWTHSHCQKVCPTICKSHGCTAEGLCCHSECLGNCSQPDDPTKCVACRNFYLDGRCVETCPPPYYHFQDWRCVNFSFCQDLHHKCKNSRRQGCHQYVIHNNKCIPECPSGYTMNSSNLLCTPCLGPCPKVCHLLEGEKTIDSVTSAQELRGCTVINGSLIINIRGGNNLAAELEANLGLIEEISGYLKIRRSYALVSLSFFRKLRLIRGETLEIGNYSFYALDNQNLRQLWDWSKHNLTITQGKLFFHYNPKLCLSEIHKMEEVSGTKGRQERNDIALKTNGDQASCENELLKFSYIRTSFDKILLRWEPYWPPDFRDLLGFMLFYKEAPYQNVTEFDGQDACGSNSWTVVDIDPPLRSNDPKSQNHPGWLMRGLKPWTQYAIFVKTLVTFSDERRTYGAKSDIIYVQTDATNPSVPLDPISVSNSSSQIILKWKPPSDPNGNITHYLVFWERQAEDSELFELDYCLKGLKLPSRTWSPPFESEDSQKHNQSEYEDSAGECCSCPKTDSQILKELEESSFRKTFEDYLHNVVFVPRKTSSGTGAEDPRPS
Sequence of Insulin receptor (P06213 763-1382 limits assumed): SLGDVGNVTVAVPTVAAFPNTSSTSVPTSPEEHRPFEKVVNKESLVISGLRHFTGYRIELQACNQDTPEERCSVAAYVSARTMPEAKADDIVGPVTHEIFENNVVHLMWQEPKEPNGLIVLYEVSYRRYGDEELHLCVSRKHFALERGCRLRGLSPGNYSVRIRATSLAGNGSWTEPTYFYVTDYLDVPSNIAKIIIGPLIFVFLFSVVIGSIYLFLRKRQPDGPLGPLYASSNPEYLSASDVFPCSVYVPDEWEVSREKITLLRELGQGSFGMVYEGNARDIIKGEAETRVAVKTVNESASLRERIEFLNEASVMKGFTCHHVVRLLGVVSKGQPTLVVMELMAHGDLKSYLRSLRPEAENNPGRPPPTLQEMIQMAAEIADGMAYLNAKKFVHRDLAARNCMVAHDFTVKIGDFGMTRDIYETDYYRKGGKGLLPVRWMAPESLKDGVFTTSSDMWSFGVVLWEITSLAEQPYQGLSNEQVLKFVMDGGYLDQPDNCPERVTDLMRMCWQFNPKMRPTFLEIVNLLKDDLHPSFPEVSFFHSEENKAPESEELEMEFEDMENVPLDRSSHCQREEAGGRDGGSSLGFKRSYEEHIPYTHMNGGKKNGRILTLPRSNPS

**Q.** For `Nc1noc2cccc(-c3cccc(O)c3)c12`, which Ki [1] is on record?
**A.** > 5.01 µM (inactive)

**Q.** What about the Ki [2] of the same compound?
**A.** > 7.94 µM (inactive)

**Q.** And the Ki [3]?
**A.** 0.0398 µM (active)

**Q.** And the Ki [4]?
**A.** 7.94 µM (active)

**Q.** And the Ki [5]?
**A.** > 25.1 µM (inactive)

**Q.** What about the Ki [6] of the same compound?
**A.** 0.631 µM (active)

**Q.** And the Ki [7]?
**A.** > 10 µM (inactive)

**Q.** And the Ki [8]?
**A.** 5.01 µM (active)

**Q.** And the Ki [9]?
**A.** > 25.1 µM (inactive)

**Q.** What about the Ki [10] of the same compound?
**A.** 6.31 µM (active)

**Q.** And the Ki [11]?
**A.** 1.26 µM (active)

**Q.** What about the Ki [12] of the same compound?
**A.** > 2 µM (inactive)

**Q.** What about the Ki [13] of the same compound?
**A.** > 20 µM (inactive)

**Q.** And the Ki [14]?
**A.** > 20 µM (inactive)

**Q.** And the Ki [15]?
**A.** > 10 µM (inactive)

**Q.** What about the Ki [16] of the same compound?
**A.** 3.16 µM (active)

**Q.** And the Ki [17]?
**A.** > 7.94 µM (inactive)

**Q.** And the Ki [18]?
**A.** > 7.94 µM (inactive)

**Q.** What about the Ki [19] of the same compound?
**A.** 7.94 µM (active)

**Q.** With `Cc1ccc2[nH]c(/C(C#N)=C/c3ccc(O)c(O)c3)nc2c1` as the compound, how does the EC50 [20] read?
**A.** 2.17 µM (active)

**Q.** For `CN(C)S(=O)(=O)Oc1cccc(C(=O)Nc2ccc(Cl)c(Cl)c2)c1`, which EC50 [21] is on record?
**A.** 18.2 µM (active)

**Q.** What about the EC50 [22] of the same compound?
**A.** 0.574 µM (active)

**Q.** Which results are given for `COC(=O)C1CN(C#N)N(c2ccc(Cl)cc2)C12c1ccccc1-c1ccccc12` (stereo unspecified)?
**A.** EC50 [23]: 0.744 µM (active); EC50 [24]: 4.31 µM (active); CC50 [25]: 3.02 µM (active); AC50 [26]: 3.16 µM (active)
